Data reported in US20260132129A1 (Genesis Therapeutics, Inc., priority 2022, published 2026).

Biological target: T1, PI3Kα H1047R (T47D cells) (Homo sapiens, UniProt P42336, H1047R)
T1 construct: endogenous in cells; host or cells: T47D cells
Assay: PI3Kα cellular assay: pAKT HTRF in T47D cells after EGF stimulation
Type: cell-based
Conditions: for IC50: T47D cells (PI3Kα H1047R), pAKT S473 HTRF, EGF stimulation; for T47D pAKT S473 HTRF IC50 (H1047R): T47D (H1047R) selectivity over SKBR3 (WT): selectivity of T47D (H1047R) over SKBR3 (WT) pAKT IC50
Summary of the method: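 T47D cells (PIK3CA H1047R) serum-starved 16 h, then treated 1 h at 37 °C with compound (10,000 nM top, 3-fold steps to 0.5 nM). After 10 min stimulation with 20 ng/mL EGF, cells were lysed and pAKT measured by HTRF.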

T1 sequence (P42336 whole entry H1047R): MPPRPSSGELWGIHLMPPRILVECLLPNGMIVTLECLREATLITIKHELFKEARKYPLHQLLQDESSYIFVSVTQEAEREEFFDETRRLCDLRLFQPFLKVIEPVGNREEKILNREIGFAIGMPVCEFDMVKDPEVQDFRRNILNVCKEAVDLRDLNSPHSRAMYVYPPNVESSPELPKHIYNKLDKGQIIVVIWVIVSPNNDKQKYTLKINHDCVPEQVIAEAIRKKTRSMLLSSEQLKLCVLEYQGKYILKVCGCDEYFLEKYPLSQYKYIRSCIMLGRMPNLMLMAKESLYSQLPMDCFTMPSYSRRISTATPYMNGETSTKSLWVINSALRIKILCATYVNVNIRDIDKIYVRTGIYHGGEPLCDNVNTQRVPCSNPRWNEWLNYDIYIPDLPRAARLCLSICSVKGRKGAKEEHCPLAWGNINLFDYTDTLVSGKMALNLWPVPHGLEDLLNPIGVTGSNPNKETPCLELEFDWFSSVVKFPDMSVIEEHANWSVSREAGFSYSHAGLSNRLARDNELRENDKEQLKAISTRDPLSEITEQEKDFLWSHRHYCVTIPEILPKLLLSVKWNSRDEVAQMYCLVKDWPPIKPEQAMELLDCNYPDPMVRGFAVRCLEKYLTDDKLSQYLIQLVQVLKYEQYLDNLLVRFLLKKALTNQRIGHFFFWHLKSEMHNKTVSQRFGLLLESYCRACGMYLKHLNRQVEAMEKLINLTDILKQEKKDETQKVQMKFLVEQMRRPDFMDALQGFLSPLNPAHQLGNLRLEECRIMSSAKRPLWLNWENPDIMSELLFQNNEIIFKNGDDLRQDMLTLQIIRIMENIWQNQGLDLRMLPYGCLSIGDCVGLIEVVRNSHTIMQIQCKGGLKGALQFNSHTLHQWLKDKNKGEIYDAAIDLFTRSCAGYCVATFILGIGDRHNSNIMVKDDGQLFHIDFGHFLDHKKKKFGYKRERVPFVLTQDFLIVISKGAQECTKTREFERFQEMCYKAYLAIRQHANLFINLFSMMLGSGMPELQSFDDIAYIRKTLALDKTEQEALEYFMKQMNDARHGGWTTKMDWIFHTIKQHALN
T1 sequence (P27986 whole entry partner): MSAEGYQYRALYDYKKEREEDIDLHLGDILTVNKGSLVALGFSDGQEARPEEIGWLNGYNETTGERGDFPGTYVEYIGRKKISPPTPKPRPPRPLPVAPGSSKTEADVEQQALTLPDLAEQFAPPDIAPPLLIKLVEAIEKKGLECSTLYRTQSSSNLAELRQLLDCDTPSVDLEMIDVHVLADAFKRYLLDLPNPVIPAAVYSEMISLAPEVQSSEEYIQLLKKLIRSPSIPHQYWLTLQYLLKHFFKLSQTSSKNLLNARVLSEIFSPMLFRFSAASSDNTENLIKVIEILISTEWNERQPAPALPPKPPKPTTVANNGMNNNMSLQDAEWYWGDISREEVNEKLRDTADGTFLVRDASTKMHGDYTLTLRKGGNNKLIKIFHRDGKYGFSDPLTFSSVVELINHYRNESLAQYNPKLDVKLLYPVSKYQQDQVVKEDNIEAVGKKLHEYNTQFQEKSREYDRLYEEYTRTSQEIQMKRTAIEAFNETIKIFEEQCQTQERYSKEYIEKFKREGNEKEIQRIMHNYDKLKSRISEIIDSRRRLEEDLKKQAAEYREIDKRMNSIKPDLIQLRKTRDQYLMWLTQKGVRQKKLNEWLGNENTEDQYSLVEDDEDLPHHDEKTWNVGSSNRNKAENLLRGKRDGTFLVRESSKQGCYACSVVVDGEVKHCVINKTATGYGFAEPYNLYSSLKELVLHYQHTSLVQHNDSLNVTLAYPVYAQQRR

Compound | IC50 | T47D pAKT S473 HTRF IC50 (H1047R): T47D (H1047R) selectivity over SKBR3 (WT)
Cc1cc([C@@H](C)Nc2ccccc2C(=O)O)c2nc(-c3ccc4c(c3)CC(F)(F)C4)cc(=O)n2c1 [Compound 822] | < 100 nM | A (A denotes >20-fold)
Cc1cc([C@H](C)Nc2ccccc2C(=O)O)c2nc(-c3ccc4c(c3)CC(F)(F)C4)cc(=O)n2c1 [Compound 823] | > 2000 nM | C (C denotes ≤5-fold)
Cc1cc([C@@H](C)Nc2ccccc2C(=O)O)c2nc(-n3cnc4ccc(O)cc43)cc(=O)n2c1 [Compound 826] | 500 to 2000 nM | B (B denotes 20-fold≥value>5-fold)
CC(=O)N=S(C)(=O)c1ccccc1N[C@H](C)c1cc(C)cn2c(=O)cc(N3CCOCC3)nc12 (stereo partly drawn) [Compound 827] | > 2000 nM | C (C denotes ≤5-fold)
CC(=O)N=S(C)(=O)c1ccccc1N[C@@H](C)c1cc(C)cn2c(=O)cc(N3CCOCC3)nc12 (stereo partly drawn) [Compound 828] | 500 to 2000 nM | B (B denotes 20-fold≥value>5-fold)
CCC(=O)N=S(C)(=O)c1ccccc1N[C@@H](C)c1cc(C)cn2c(=O)cc(N3CCOCC3)nc12 (stereo partly drawn) [Compound 829] | > 2000 nM | C (C denotes ≤5-fold)
Cc1cc(C(C)Nc2ccccc2-c2ccnnc2)c2nc(N3Cc4ccccc4C3)c(C3CC3)c(=O)n2c1 (stereo not drawn) [Compound 832] | 500 to 2000 nM | B (B denotes 20-fold≥value>5-fold)
Cc1cc(C(C)Nc2ccccc2C(=O)O)c2nc(-c3ccc4c(c3)CC(F)(F)C4)c(C)c(=O)n2c1 (stereo not drawn) [Compound 833] | 100 to 500 nM | A (A denotes >20-fold)
Cc1cc(C(C)NC2CCN(S(=O)(=O)N(C)C)C2)c2nc(N3Cc4ccccc4C3)cc(=O)n2c1 (stereo not drawn) [Compound 834] | > 2000 nM | C (C denotes ≤5-fold)
CNS(=O)(=O)c1ccccc1NC(C)c1cc(C)cn2c(=O)cc(N3Cc4ccccc4C3)nc12 (stereo not drawn) [Compound 835] | 100 to 500 nM | A (A denotes >20-fold)
Cc1cc(C(C)N(C)c2ccccc2S(N)(=O)=O)c2nc(N3Cc4ccccc4C3)cc(=O)n2c1 (stereo not drawn) [Compound 836] | > 2000 nM | C (C denotes ≤5-fold)
C=CC(=O)Nc1ccc(C(=O)O)c(NC(C)c2cc(C)cn3c(=O)cc(N4Cc5ccccc5C4)nc23)c1 (stereo not drawn) [Compound 840] | > 2000 nM | C (C denotes ≤5-fold)
Cc1cc([C@@H](C)Nc2ccccc2C(=O)O)c2nc(-c3ccc4[nH]nc(C)c4c3)cc(=O)n2c1 [Compound 841] |  | C (C denotes ≤5-fold)
Cc1cc(C(C)Nc2ccccc2C(=O)O)c2nc(N3C[C@H]4C[C@@H](C5CCN(S(C)(=O)=O)CC5)C[C@H]4C3)cc(=O)n2c1 (stereo partly drawn) [Compound 843] |  | B (B denotes 20-fold≥value>5-fold)
Cc1cc(C(C)Nc2ccccc2C(=O)O)c2nc(N3C[C@H]4C[C@@H](C5CCN(S(=O)(=O)N(C)C)CC5)C[C@H]4C3)cc(=O)n2c1 (stereo partly drawn) [Compound 844] | 500 to 2000 nM | B (B denotes 20-fold≥value>5-fold)
Cc1cc([C@@H](C)Nc2ccccc2-c2ccnnc2)c2nc(N3Cc4ccccc4C3)c(C3CC3)c(=O)n2c1 [Compound 847] | > 2000 nM | C (C denotes ≤5-fold)
